Columns and labels:
[1] = test system: SDIMO-bearing bacteria; assay: PCR detection of SDIMO gene in contaminated soil cultured with diethylene glycol (Example 9); format: cell-based; conditions: seven contaminated soil samples, diethylene glycol 20 g/L, six days
Description: The proliferation of SDIMO-bearing bacteria by culturing in a medium supplemented with diethylene glycol was investigated in seven types of soil collected from different places at sites contaminated with 1,4-dioxane. It should be noted that the proliferation of SDIMO-bearing bacteria was evaluated by an increase in PCR amplification products of about 420 bp derived from a SDIMO-encoding gene (a SDIMO gene).
The soil with a wet weight of 10 g was added to an Erlenmeyer flask of 300 ml in which the liquid medium of 90 ml (medium composition: K2HPO4: 1 g/L, (NH4)2SO4: 1 g/L, NaCl: 50 mg/L, MgSO4.7H2O: 200 mg/L, FeCl3: 10 mg/L, CaCl2: 50 mg/L, pH: 7.0) was placed. Then, diethylene glycol was added such that the final concentration became 20 g/L and the rotary shaking culture was carried out at 28° C. and 120 rpm.
The samples were collected immediately after diethylene glycol was added and after six days by 5 ml, respectively, and a supernatant was removed by centrifugation (10,000×g, 4° C., 5 min), and then DNA was recovered from the soil of 0.5 g (of wet weight). For DNA extraction, a soil DNA extraction kit (manufactured by Nippon Gene Co., Ltd., product name: ISOIL for Beads Beating) was used and the extracted DNA was purified using a DNA fragment purification kit (Toyobo Co., Ltd., product name: MagExtractor-PCR & Gel Clean up-). […]

[2] = test system: strain CB1190, strain D11, and strain D17; assay: Proliferation of 1,4-dioxane-degrading bacteria in the presence of diethylene glycol (Example 1); format: cell-based; conditions: 28° C., nine days
Description: Strain CB1190, strain D11, and strain D17 were used as 1,4-dioxane-degrading bacteria. Each degradation bacterium was cultured for ten days using a CGY medium (casitone: 5 g/L, glycerin: 5 g/L, yeast extract: 1 g/L) containing 1,4-dioxane at a concentration of 500 mg/L. After cultivation, the bacterial cells were harvested and washed with a centrifugal separator, and then mixed with 20 mL of physiological saline, in such a manner that an inoculum suspension was obtained. It should be noted that an inoculum suspension (OD600: approximately 10) which was turbidity-standardized using a spectrophotometer was used as the inoculum suspension. […]
The bacterial cells in the culture solution were collected as […] by suction filtration after the culture was finished. Then, the […] was dried at 105° C. overnight, and the weight of the bacterial cells was measured, in such a manner that the bacterial cell concentration (mg-dry cell/L) was obtained. Proliferation of the bacterial cells was evaluated by Δ bacterial cell concentration obtained by subtracting the initial bacterial cell concentration from the bacterial cell concentration on the ninth day of culture. […]

[3] = test system: strain D17; assay: Bacterial cell concentration measurement at different diethylene glycol concentrations (Examples 3 to 7); format: cell-based, Pseudonocardia sp. D17; conditions: diethylene glycol increased from 1 g/L to 10 g/L, seven days
Description: 100 mL of a liquid medium (medium composition: K2HPO4: 1 g/L, (NH4)2SO4: 1 g/L, NaCl: 50 mg/L, MgSO4.7H2O: 200 mg/L, FeCl3: 10 mg/L, CaCl2: 50 mg/L, pH: 7.3) containing diethylene glycol of 1 g/L was added to an Erlenmeyer flask equipped with baffles with a volume of 300 mL. Next, strain D17 which was inoculated in the MGY medium in advance was cultured (initial bacterial cell concentration: 111 mg-dry cell/L) and was subjected to the rotary shaking culture at 28° C. and 120 rpm for seven days.
Degradation bacteria were cultured in the same manner as in Example 3 except that the concentration of diethylene glycol in the liquid medium was set to be 5 g/L. […]
The bacterial cells in the culture solution were collected as a filter residue through suction filtration after the cultivation was finished and the bacterial cells were dried at 105° C. overnight, and then the weight of the collected bacterial cells was measured. The bacterial cell concentration (mg-dry cell/L) was obtained from the value of the measured bacterial cell weight. […] The proliferation property of the bacterial cells was evaluated by Δ bacterial cell concentration which was obtained by subtracting the initial bacterial cell concentration from the bacterial cell concentration on the seventh day of culturing.

OCCOCCO [diethylene glycol]
PCR amplification product of about 420 bp (SDIMO gene) before and after culturing [1]: preferentially proliferated SDIMO-bearing bacteria | proliferation properties (Δ bacterial cell concentration) ([2]; diethylene glycol 1 g/L as carbon source, all three degradation bacteria): could grow using diethylene glycol as a carbon source | proliferation properties (Δ bacterial cell concentration) ([2]; diethylene glycol 1 g/L, strain D17): extremely high proliferation properties | bacterial cell concentration [3]: increased

Source: patent US10364415B2, “1,4-dioxane-degrading bacteria culture method, medium, and 1,4-dioxane treatment method using 1,4-dioxane-degrading bacteria” (TAISEI CORPORATION, priority 2014, dated 2019)
